In patent US20220304862A1, “Method And Device For Substance Delivery To The Inner Ear” (UNIVERSITY OF BRIGHTON, priority 2019, published 2022):

Tested on: auditory nerve
Protocol: Pigmented guinea pigs of similar weight (350-360 g) were anaesthetised with the neurolept anaesthetic technique (0.06 mg/kg body weight atropine sulphate s.c., 30 mg/kg pentobarbitone i.p., 500 μl/kg Hypnorm i.m.). Additional injections of Hypnorm were given every 40 minutes. Additional doses of pentobarbitone were administered as needed to maintain a non-reflexive state. The heart rate was monitored with a pair of skin electrodes placed on both sides of the thorax. The animals were tracheotomized and artificially respired, and their core temperature was maintained at 38° C. with a heating blanket and a heated head holder.
The middle ear cavity of the ear used for the measurements was opened to reveal the round window. Compound action potentials of the auditory nerve were measured from the cochlear bony ridge in the proximity of the round window membrane using Teflon-coated silver wire coupled to laboratory designed and built extracellular amplifier (James Hartley). Thresholds of the N1 peak of the compound action potentials were estimated visually using 10 ms tone stimuli at a repetition rate of 10 Hz.
For acoustic stimulation sound was delivered to the tympanic membrane by a closed acoustic system comprising two Bruel and Kjaer 4134½″ microphones for delivering tones and a single Bruel and Kjaer 4133½″ microphone for monitoring sound pressure at the tympanum. The microphones were coupled to the ear canal via 1 cm long, 4 mm diameter tubes to a conical speculum, the 1 mm diameter opening of which was placed about 1 mm from the tympanum. The closed sound system was calibrated in situ for frequencies between 1 and 50 kHz. Known sound pressure levels were expressed in dB SPL re 2×10^−5 Pa. All acoustic stimuli in this work were shaped with raised cosines of 0.5 ms duration at the beginning and at the end of stimulation. White noise for acoustical calibration and tone sequences for auditory stimulation were synthesised by a Data Translation 3010 board at 250 kHz sampling rate and delivered to the microphones through low-pass filters (100 kHz cut-off frequency). Signals from the acoustic measuring amplifier (James Hartley) were digitised at 250 kHz sampling rate using the same board and averaged in the time domain. Experimental control, data acquisition and data analysis were performed using a PC with programmes written in MATLAB.
The solution was removed from the round window using paper wicks to observe the wash out effect. […]
In the second experiments, the placement of the same volume of salicylate solution on the round window was followed by stimulation of the ear with oscillating air pressure in the ear canal during a 5-minute period with a consecutive 5-minute period without oscillating air pressure stimulation when the auditory nerve thresholds were measured. […]

`O=C([O-])c1ccccc1O.[Na+]` [salicylate, sodium salicylate] was tested, and the “time after which the salicylate effect saturated” value (oscillating pressure 4 Hz in ear canal, total pressure stimulation time, excluding the 5-minute no-pressure periods) was 15 to 20 min, the “effect of salicylate on the auditory nerve threshold” value (passive diffusion, 5 μl of 100 mM on round window, tone frequencies lower than 5 kHz (approximately apical 55% of cochlear length), FIG. 2A) was “no effect” and the “increase of threshold response to pure tones with oscillating pressure versus passive diffusion” value (tones 27, 21, 15, 11, 5, 3 and 1 kHz, particularly low frequencies, pooled data of 5 experiments per protocol, FIG. 4) was “to a far greater extent”. For the same molecule, the “recovery of compound action potential thresholds after washing out of salicylate from the round window” value (washout after 80 min (passive) or 74 min (oscillating pressure), FIG. 2) was “Partial recovery”.
